Results on ten compounds are retold here after US12098139B2, “Chemokine receptor modulators and uses thereof” (RAPT Therapeutics, Inc., priority 2018, dated 2024).

One assay concerns the target T1, hCCR4 (Chem5-hCCR4 cells) (Homo sapiens, UniProt P51679).
T1 sequence (P51679 1-360): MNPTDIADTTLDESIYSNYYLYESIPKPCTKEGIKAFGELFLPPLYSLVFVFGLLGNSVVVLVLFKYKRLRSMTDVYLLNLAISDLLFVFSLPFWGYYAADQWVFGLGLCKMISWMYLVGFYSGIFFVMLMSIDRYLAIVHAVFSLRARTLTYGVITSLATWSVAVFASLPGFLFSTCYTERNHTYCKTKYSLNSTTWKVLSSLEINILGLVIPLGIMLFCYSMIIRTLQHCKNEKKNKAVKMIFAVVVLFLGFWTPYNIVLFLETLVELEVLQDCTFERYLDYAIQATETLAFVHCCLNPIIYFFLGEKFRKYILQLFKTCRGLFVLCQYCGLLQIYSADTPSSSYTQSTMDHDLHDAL
The experiment in a line: Calcium flux assay (CCL22-stimulated, FLIPR Calcium 6 dye). The assay is classed as cell-based. The note with it: Table 3, CCL22 1.5 nM, read-out: Potency (IC50). In short, it runs like this:
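Chem5-hCCR4 cells were serum-starved 2 h and loaded 2 h with Calcium 6 dye plus 2.5 mM probenecid. They were then preincubated 1 h at 37 °C with compound (0.5% DMSO). CCL22 was added from a 7.5 nM working solution (5× EC80), and ΔF/Fmin at 485/525 nm was fitted 4-parameter for IC50.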
For the compound `C[C@@H](Nc1nc(N2CC([C@H]3CCCN(CCO)C3)C2)ncc1F)c1ccc(Cl)cc1Cl` [Example 48, 2-((R)-3-(1-(4-(((R)-1-(2,4-dichlorophenyl)ethyl)amino)-5-fluoropyrimidin-2-yl)azetidin-3-yl)piperidin-1-yl)ethan-1-ol], the concentration for half-maximal inhibition (IC50) is 100 to 500 nM.

The same assay, now with this note: Table 4, CCL22 1.5 nM, read-out: Potency (IC50).
Take `C[C@@H](Nc1nc(N2CC([C@H]3CCCN(CCO)C3)C2)cnc1C#N)c1ccc(Cl)cc1S(C)(=O)=O` [Example 49, 3-[[(1R)-1-(4-chloro-2-methylsulfonyl-phenyl)ethyl]amino]-5-[3-[(3R)-1-(2-hydroxyethyl)-3-piperidyl]azetidin-1-yl]pyrazine-2-carbonitrile; 2,2,2-trifluoroacetic acid]: the 50% inhibitory concentration (IC50) was more than 500 nM.
As for `C[C@@H](Nc1nc(N2CC([C@H]3CCCN(C4CC(C)(C(=O)O)C4)C3)C2)cnc1C#N)c1ccc(Cl)cc1Cl` (stereo partly drawn) [Example 51, 3-[(1S,3R)-3-[1-[5-cyano-6-[[(1R)-1-(2,4-dichlorophenyl)ethyl]amino]pyrazin-2-yl]azetidin-3-yl]-1-piperidyl]-1-methyl-cyclobutanecarboxylic acid; 2,2,2-trifluoroacetic acid], the IC50 is more than 500 nM.
`C[C@@H](Nc1cnc(C#N)c(N2CC([C@H]3CCCN(CCC(=O)O)C3)C2)n1)c1ccc(Cl)cc1Cl` [Example 53, 3-(3-(1-(3-cyano-6-(((R)-1-(2,4-dichlorophenyl)ethyl)amino)pyrazin-2-yl)azetidin-3-yl)piperidin-1-yl)propanoic acid]: the IC50 was more than 500 nM.

The same assay, now with this note: Table 5, CCL22 1.5 nM, read-out: Potency (IC50).
Consider `C[C@@H](Nc1nc(N2CC([C@H]3CCCN(CC(=O)N4CCCC4)C3)C2)ncc1Cl)c1ccc(Cl)cc1Cl` [Example 56, 2-[(3R)-3-[1-[5-chloro-4-[[(1R)-1-(2,4-dichlorophenyl)ethyl]amino]pyrimidin-2-yl]azetidin-3-yl]-1-piperidyl]-1-pyrrolidin-1-yl-ethanone; 2,2,2-trifluoroacetic acid], for which the IC50 lay within 100 to 500 nM.
Consider `CC(O)c1cnc(N2CC([C@H]3CCCN([C@H]4C[C@](C)(C(=O)O)C4)C3)C2)nc1N[C@H](C)c1ccc(Cl)cc1Cl` (stereo partly drawn) [Example 58, 3-[(3R)-3-[1-[4-[[(1R)-1-(2,4-dichlorophenyl)ethyl]amino]-5-(1-hydroxyethyl)pyrimidin-2-yl]azetidin-3-yl]-1-piperidyl]-1-methyl-cyclobutanecarboxylic acid; 2,2,2-trifluoroacetic acid], for which the IC50 was less than 100 nM.
In the case of `C[C@@H](Nc1cc(C(F)(F)F)nc(N2CC([C@H]3CCCN([C@H]4C[C@](C)(C(=O)O)C4)C3)C2)n1)c1ccc(Cl)cc1Cl` [Example 59, 3-[(1R)-3-[1-[4-[[(1R)-1-(2,4-dichlorophenyl)ethyl]amino]-6-(trifluoromethyl)pyrimidin-2-yl]azetidin-3-yl]-1-piperidyl]-1-methyl-cyclobutanecarboxylic acid], the IC50 lay in the range of 100 to 500 nM.
In the case of `C[C@@H](Nc1nc(N2CC([C@H]3CCCN(CCO)C3)C2)nc2sccc12)c1ccc(Cl)cc1Cl` [Example 61, 2-[(3R)-3-[1-[4-[[(1R)-1-(2,4-dichlorophenyl)ethyl]amino]thieno[2,3-d]pyrimidin-2-yl]azetidin-3-yl]-1-piperidyl]ethanol; 2,2,2-trifluoroacetic acid], the IC50 was less than 100 nM.
On the same count and under the same terms, the result for `C[C@@H](Nc1nc(N2CC([C@H]3CCCN(CCO)C3)C2)nc2ccsc12)c1ccc(Cl)cc1Cl` [Example 62, 2-[(3R)-3-[1-[4-[[(1R)-1-(2,4-dichlorophenyl)ethyl]amino]thieno[3,2-d]pyrimidin-2-yl]azetidin-3-yl]-1-piperidyl]ethanol; 2,2,2-trifluoroacetic acid] reads less than 100 nM.
In the case of `CC(Nc1nc(N2CC([C@H]3CCCN(CCO)C3)C2)ncc1Cl)c1ccc(Cl)cc1F` (stereo partly drawn) [Example 63, 2-[(3R)-3-[1-[5-chloro-4-[1-(4-chloro-2-fluoro-phenyl)ethylamino]pyrimidin-2-yl]azetidin-3-yl]-1-piperidyl]ethanol; 2,2,2-trifluoroacetic acid], the IC50 is less than 100 nM.
